IC50 data for 27 compounds are collected here from patent publication US7713994B2 (Wyeth LLC, priority 2005, dated 2010).

pIC50: −log10 of the molar value.

This assay has as its target T1, cyclin D1/cdk 4 enzyme (Homo sapiens, UniProt P11802).
T1 construct: made in house; host or cells: Sf9 insect cells, recombinant baculovirus
Nature of the assay: CDK4 ELISA kinase assay (phospho-Rb ser 795 detection). The class given is biochemical. The note with it: In Vitro Enzyme Assay, cyclin D1/cdk 4, read-out: CDK4 IC50. As to the method:
• 1. High-binding ELISA microtiter plates (Costar) were coated with 40 μl of the kinase substrate (GST fusion of C-terminal fragment of the retinoblastoma susceptibility gene product) diluted to 10 μg/ml in tris-buffered saline (TBS), overnight at 4° C. • 2. Non-specific binding sites were blocked for 1 hour at 4° C. with Superblock in TBS (Pierce), and the plates rinsed with water. • 3. For the screen, 1.5 μl of test compound (200 μg/ml stock in 20% DMSO/20 mM HEPES, pH 7.5) was added to each well. Final dose of the test compound in the assay was 10 ug/ml. […] The kinase reaction (30 μl) was dispensed into each well. Reactions contained 200 μM ATP, 0.5 mg/ml bovine serum albumin (BSA; Sigma), and 0.5 μl partially purified cyclin D1/cdk 4 enzyme*. The enzyme complex is expressed in insect cells (Sf9) infected with recombinant baculovirus and partially purified using ammonium sulfate fractionation. Reaction volumes were adjusted to 30 μl with kinase assay buffer (50 mM HEPES, pH 7.5, 10 mM MgCl2, 5% glycerol, 10 mM 2-mercaptoethanol). • *: For CDK2 assay, 1.0 μl cyclin E/CDK2 enzyme (diluted 1:1000 in kinase assay buffer) was used. The enzyme is isolated from insect cells (Sf9) infected with recombinant baculovirus and partially purified using ammonium sulfate fractionation. For CDK1 assay, 0.08 μl cyclin B/CDK1 enzyme [New England BioLabs; the enzyme is isolated from insect cells (Sf9) infected with recombinant baculovirus carrying human cdc 2 and human cyclin B] was used.
[…] • 5. Plates were incubated at 30° C. for 1 hour. • 6. The reaction mixture was removed by aspiration and replaced with 250 μl TBS containing 0.1% Tween-20 and 5% nonfat dry milk (blocking buffer). The plates were incubated at 4° C. for 1 hour. • 7. The blocking buffer was removed and replaced with 50 μl of the primary antibody [anti-phospho-Rb ser 795 (New England BioLabs) diluted 1:1000 in blocking buffer]. Incubation was at 4° C. for 16-20 hours. • 8. The wells were rinsed 3 times with 250 μl of TBS containing 0.1% Tween-20 followed by the addition of 50 μl of secondary antibody [anti-rabbit IgG conjugated to horseradish peroxidase (Amersham Life Science) diluted 1:1000 in blocking buffer]. • 9. After a 1 hour incubation at room temperature, the wells were rinsed 3 times with 250 μl of TBS/0.1% Tween 20. • 10. TMB (3,3′,5,5′-tetramethylbenzidine dihydrochloride) substrate solution (100 μl; Pierce) was added to each well and the color development reaction allowed to proceed 5-10 minutes at room temperature with shaking. The reaction was stopped by the addition of 2N sulfuric acid (100 μl) and the absorbance values read at 450 nm in a microplate reader (Molecular Devices). Analysis of Results: • 1. The percentage of the absorbance value in wells containing the test compound relative to control wells (no test agent) was determined. • 2. IC50 values of selected compounds were determined from inhibition curves, after subtracting background values (no substrate).
In general terms: An ELISA detects its analyte on a solid surface through an enzyme-linked reagent.

T1 sequence (P11802 whole entry, species assumed): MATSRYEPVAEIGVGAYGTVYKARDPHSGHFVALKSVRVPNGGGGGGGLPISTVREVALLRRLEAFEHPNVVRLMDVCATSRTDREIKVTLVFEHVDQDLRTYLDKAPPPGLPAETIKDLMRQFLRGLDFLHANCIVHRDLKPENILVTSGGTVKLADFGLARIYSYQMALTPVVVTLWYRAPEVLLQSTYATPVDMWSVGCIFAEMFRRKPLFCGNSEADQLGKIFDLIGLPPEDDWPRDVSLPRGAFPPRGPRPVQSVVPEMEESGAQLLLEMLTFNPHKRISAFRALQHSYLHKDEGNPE
T1 sequence (P24385 whole entry partner, species assumed): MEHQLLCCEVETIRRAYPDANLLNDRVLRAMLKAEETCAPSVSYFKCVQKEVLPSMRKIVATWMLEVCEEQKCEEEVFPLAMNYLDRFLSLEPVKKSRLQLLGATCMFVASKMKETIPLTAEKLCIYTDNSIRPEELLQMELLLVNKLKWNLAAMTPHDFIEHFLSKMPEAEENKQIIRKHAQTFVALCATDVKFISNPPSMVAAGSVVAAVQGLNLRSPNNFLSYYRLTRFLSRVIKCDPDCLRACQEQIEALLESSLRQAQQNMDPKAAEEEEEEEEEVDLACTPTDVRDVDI

One may read the pIC50 as −log10 of the IC50, conventionally taken in molar units. For the compound `N#CCc1ccc(NC=C2C(=O)NC(=O)c3ccc(-c4cccc(C#N)c4)cc32)cc1` [Example 719, 3-{4-[(4-Cyanomethyl-phenylamino)-methylene]-1,3-dioxo-1,2,3,4-tetrahydro-isoquinolin-6-yl}-benzonitrile], the pIC50 is 4.56.
In the case of `COc1cc(-c2ccc3c(c2)C(=CNCc2ccc(O)c(O)c2)C(=O)NC3=O)cc(OC)c1OC` [Example 815, 4-[(3,4-Dihydroxy-benzylamino)-methylene]-6-(3,4,5-trimethoxy-phenyl)-4H-isoquinoline-1,3-dione] it was 5.60; in that of `CCCN(CCC)Cc1ccc(NC=C2C(=O)NC(=O)c3ccccc32)cc1` [Example 614, 4-[(4-Dipropylaminomethyl-phenylamino)-methylene]-4H-isoquinoline-1,3-dione], 4.60; in that of `N#CCc1ccc(NC=C2C(=O)NC(=O)c3ccc(-c4csc5ccccc45)cc32)cc1` [Example 628, {4-[(6-Benzo[b]thiophen-3-yl-1,3-dioxo-2,3-dihydro-1H-isoquinolin-4-ylidenemethyl)-amino]-phenyl}-acetonitrile], 4.47.
For the compound `CN1CCN(c2ccc(NC=C3C(=O)NC(=O)c4ccc(C=Cc5ccc(CC#N)cc5)cc43)cc2)CC1` [Example 803, {4-[2-(4-{[4-(4-Methyl-piperazin-1-yl)-phenylamino]-methylene}-1,3-dioxo-1,2,3,4-tetrahydro-isoquinolin-6-yl)-vinyl]-phenyl}-acetonitrile], the pIC50 is 5.30.
In the case of `N#CCc1ccc(NC=C2C(=O)NC(=O)c3ccc(-c4ccc(C#N)cc4)cc32)cc1` [Example 718, 4-{4-[(4-Cyanomethyl-phenylamino)-methylene]-1,3-dioxo-1,2,3,4-tetrahydro-isoquinolin-6-yl}-benzonitrile] it was 5.09; in that of `O=C1NC(=O)c2ccccc2C1=CNc1c(O)cccc1O` [Example 565, 4-[(2,6-Dihydroxy-phenylamino)-methylene]-4H-isoquinoline-1,3-dione], 4.42.
In the case of `CN1CCN(c2ccc(NC=C3C(=O)NC(=O)c4ccc(C=C5CCCC5)cc43)cc2)CC1` [Example 828, 6-Cyclopentylidenemethyl-4-{[4-(4-methyl-piperazin-1-yl)-phenylamino]-methylene}-4H-isoquinoline-1,3-dione] it was 5.36.
In the case of `CN1CCN(c2ccc(NC=C3C(=O)NC(=O)c4ccc(-c5ccc6c(c5)OCO6)cc43)cc2)CC1` [Example 806, 6-Benzo[1,3]dioxol-5-yl-4-{[4-(4-methyl-piperazin-1-yl)-phenylamino]-methylene}-4H-isoquinoline-1,3-dione] it was 5.68; in that of `COCCN(C)Cc1ccc(N/C=C2\C(=O)NC(=O)c3ccccc32)cc1` [Example 616, 4-[(4-{[(2-Methoxy-ethyl)-methyl-amino]-methyl}-phenylamino)-methylene]-4H-isoquinoline-1,3-dione], 4.83.
As to `CC(C)c1ccc(-c2ccc3c(c2)C(=CNCc2ccc(S(N)(=O)=O)cc2)C(=O)NC3=O)cc1` [Example 761, 4-({[6-(4-Isopropyl-phenyl)-1,3-dioxo-2,3-dihydro-1H-isoquinolin-4-ylidenemethyl]-amino}-methyl)-benzenesulfonamide], the pIC50 was 4.74.
Take `O=C1NC(=O)c2ccccc2C1=CNc1ccc(C(=O)O)c(O)c1` [Example 560, 4-[(1,3-Dioxo-2,3-dihydro-1H-isoquinolin-4-ylidenemethyl)-amino]-2-hydroxy-benzoic acid]: the negative-log IC50 (pIC50) is 4.76.
In the case of `Cc1ccccc1-c1ccc2c(c1)C(=CNCc1ccc(S(N)(=O)=O)cc1)C(=O)NC2=O` [Example 754, 4-{[(1,3-Dioxo-6-o-tolyl-2,3-dihydro-1H-isoquinolin-4-ylidenemethyl)-amino]-methyl}-benzenesulfonamide] it was 4.96.
In the case of `O=C1NC(=O)c2ccc(-c3ccccc3C(F)(F)F)cc2C1=CNCc1ccc(O)c(O)c1` [Example 774, 4-[(3,4-Dihydroxy-benzylamino)-methylene]-6-(2-trifluoromethyl-phenyl)-4H-isoquinoline-1,3-dione] it was 5.85; in that of `CCN(CC)CCN1CCN(c2ccc(NC=C3C(=O)NC(=O)c4ccccc43)cc2)CC1` [Example 599, 4-({4-[4-(2-Diethylamino-ethyl)-piperazin-1-yl]-phenylamino}-methylene)-4H-isoquinoline-1,3-dione], 4.40.
In the case of `CN1CCN(c2ccc(NC=C3C(=O)NC(=O)c4ccc(-c5ccc(C(F)(F)F)cc5)cc43)cc2)CC1` [Example 687, 4-{[4-(4-Methyl-piperazin-1-yl)-phenylamino]-methylene}-6-(4-trifluoromethyl-phenyl)-4H-isoquinoline-1,3-dione] it was 4.68.
As for `COc1ccccc1-c1ccc2c(c1)C(=CNc1ccc(N3CCN(C)CC3)cc1)C(=O)NC2=O` [Example 683, 6-(2-Methoxy-phenyl)-4-{[4-(4-methyl-piperazin-1-yl)-phenylamino]-methylene}-4H-isoquinoline-1,3-dione], the pIC50 is 4.48.
In the case of “4-({[6-(3-Cyano-phenyl)-1,3-dioxo-2,3-dihydro-1H-isoquinolin-4-ylidenemethyl]-amino}-methyl)-benzenesulfonamide [Example 756]” it was 4.70.
In the case of `CN1CCN(c2ccc(NC=C3C(=O)NC(=O)c4ccc(-c5ccc(N(C)C)cc5)cc43)cc2)CC1` [Example 807, 6-(4-Dimethylamino-phenyl)-4-{[4-(4-methyl-piperazin-1-yl)-phenylamino]-methylene}-4H-isoquinoline-1,3-dione] it was 4.84; in that of `NS(=O)(=O)c1ccc(CNC=C2C(=O)NC(=O)c3ccc(-c4ccc(-c5ccccc5)cc4)cc32)cc1` [Example 757, 4-{[(6-Biphenyl-4-yl-1,3-dioxo-2,3-dihydro-1H-isoquinolin-4-ylidenemethyl)-amino]-methyl}-benzenesulfonamide], 4.51; in that of `O=C1NC(=O)c2ccccc2C1=CNCc1cccc(NS(=O)(=O)c2cccs2)c1` [Example 579, Thiophene-2-sulfonic acid (3-{[(1,3-dioxo-2,3-dihydro-1H-isoquinolin-4-ylidenemethyl)-amino]-methyl}-phenyl)-amide], 4.69.
In the case of `O=C1NC(=O)c2ccccc2C1=CNc1ccncc1` [Example 618, 4-(Pyridin-4-ylaminomethylene)-4H-isoquinoline-1,3-dione] it was 4.40; in that of `O=C1NC(=O)c2ccccc2C1=CNCc1cccc(NC(=O)C2CCC2)c1` [Example 587, Cyclobutanecarboxylic acid (3-{[(1,3-dioxo-2,3-dihydro-1H-isoquinolin-4-ylidenemethyl)-amino]-methyl}-phenyl)-amide], 4.36.
As for `CSc1ccc(-c2ccc3c(c2)C(=CNCc2ccc(S(N)(=O)=O)cc2)C(=O)NC3=O)cc1` [Example 763, 4-({[6-(4-Methylsulfanyl-phenyl)-1,3-dioxo-2,3-dihydro-1H-isoquinolin-4-ylidenemethyl]-amino}-methyl)-benzenesulfonamide], the negative logarithm of the IC50 (pIC50) is 4.30.
In the case of `NCc1cccc(CNC=C2C(=O)NC(=O)c3ccccc32)c1` [Example 578, 4-[(3-Aminomethyl-benzylamino)-methylene]-4H-isoquinoline-1,3-dione] it was 4.63.
In the case of `CCN1CCN(c2ccc(NC=C3C(=O)NC(=O)c4ccccc43)cc2)CC1` [Example 595, 4-{[4-(4-Ethyl-piperazin-1-yl)-phenylamino]-methylene}-4H-isoquinoline-1,3-dione] it was 4.56.
With `CN1CCN(c2ccc(NC=C3C(=O)NC(=O)c4ccc(-c5ccc(-c6ccccc6)cc5)cc43)cc2)CC1` [Example 696, 6-Biphenyl-4-yl-4-{[4-(4-methyl-piperazin-1-yl)-phenylamino]-methylene}-4H-isoquinoline-1,3-dione], the negative-log IC50 (pIC50) was 4.56.
